The test system of this assay is HEK293 GFP-correction line. Briefly: Targeted gene modification by HDR/HITI in HEK293 GFP-correction line. Type of assay: cell-based. The following applies: NU7026 30 μM. From the text: Generation of HEK293 GFP-correction line. To assess the efficiency of targeted gene modification by HDR and HITI in dividing cells, a mutated GFP gene-based reporter system was established in HEK293. Briefly, pEGIP*35 was co-transfected with pMDLg/pRRE, pRSV-Rev and pMD2.G, packaged and purified as lentiviral vectors according to a published protocol Kutner, R. H., Zhang, X.-Y. & Reiser, J. Production, concentration and titration of pseudotyped HIV-1-based lentiviral vectors. Nature Protocols 4, 495-505 (2009). HEK293 cells were transduced in suspension with lentiviral EGIP*35 vector and 4 μg/ml polybrene for 1 h. After brief centrifugation to remove any residual lentiviral vector, the cells were seeded in 100 mm dishes. Three days after transduction, puromycin (1-2 μg/ml; Invitrogen) was added to the medium. After 10 days, single colonies were individually picked up and expanded as HEK293 GFP-correction line.
Transfection of in vitro cultured cells. […]
Existing methods were improved for more robust NHEJ-based targeted knock-in. […] The efficiencies of targeted gene replacement via HDR and homology-independent targeted integration (HITI) were determined by GFP and mCherry signals respectively (FIG. 1A). […]

With `O=c1cc(N2CCOCC2)oc2c1ccc1ccccc12` [NU7026], the “effect of NHEJ inhibitor on efficiency of HITI” value is listed as “significantly decreased”.

(Values after patent US11959094B2, “Methods and compositions for genome editing in non-dividing cells” (Salk Institute for Biological Studies, priority 2016, dated 2024).)
